From paper PMC11464777, “Approved drugs successfully repurposed against Leishmania based on machine learning predictions” (Frontiers in Cellular and Infection Microbiology, 2024)
≈ marks a conversion by molar mass, not a printed value. Like-named read-outs stand apart in the source and are kept apart here.

Columns and labels:
[1] = test system: L. infantum (LV50 and Drep-14) and L. major (Empa-12) promastigotes; test: MTT promastigote viability assay, stated across the three strains; assay type: cell-based, Leishmania infantum, Leishmania major; details: 72 h; for Effect on promastigote viability: three strains, at the tested concentrations; for IC50: Leishmania infantum, LV50, Drep-14, Empa-12, MTT, read-out: Promastigotes IC50, span over the three strains
Text: (§1) Three Tunisian laboratory strains already described ([Oualha et al., 2019]), originally isolated from distinct clinical manifestations were used in this study: (i) L. infantum LV50 MHOM/TN/94/LV50) strain originating from a bone marrow of a visceral leishmaniasis patient, (ii) L. infantum Drep-14 (MHOM/TN/96/Drep-14) strain isolated from a lesion of a sporadic cutaneous leishmaniasis patient and (iii) L. major Empa-12 (MHOM/TN/2012/Empa-12) strain isolated from a zoonotic cutaneous leishmaniasis patient. Stocks of these parasites obtained after passage through BALB/c mice were used as previously described ([Oualha et al., 2019]). Thawed cryopreserved parasites were cultured at 22°C in RPMI-1640/Glutamax medium (Gibco BRL, Germany) containing penicillin (100 U/mL) and streptomycin (100 μg/mL) supplemented with 10% heat-inactivated Fetal Bovine Serum (FBS) (Gibco BRL, Germany).
(§2) The effect of the selected compounds on the viability of Leishmania promastigotes was evaluated by a colorimetric MTT (3-(4,5-dimethylthiazol-2yl)-2,5-diphenyl tetrazolium bromide) assay. It consists in the reduction of tetrazolium salt to a […] crystal (blue formazan) by the succinate dehydrogenase activity of mitochondria in living cells, which can be quantified by spectrophotometry. Briefly, 90 μL of promastigotes (5 × 10^5 parasites/well) harvested from the stationary growth phase of each strain were added to a 96-well culture plate and incubated with 10 μL of a range of serial dilutions of the selected compounds in technical replicates (final concentration of 1% DMSO per well) ([Ioset et al., 2009]; [Harigua-Souiai et al., 2018]). […] After 72h of incubation at 22°C, 25 μl of MTT solution (5 mg/mL) was added to each well and incubated at 22°C for 4h. Then, 150 μl of DMSO was added to each well to dissolve the blue formazan and the optical density (OD) was measured at 570 nm with a microplate reader ([…], Labsystems). Promastigotes incubated in complete medium containing 1% DMSO were used as negative control. The standard anti-Leishmania drug, Amphotericin B was used as a positive control. All experiments were performed in two technical replicates and repeated three times in independent experiments. The mean percentage of promastigotes viability was calculated from the Optical Density at 570 nm as follows:
(§3) Promastigote viability (%)= [(ODcompound− ODblank)/(ODnegative control −ODblank)]*100
(§4) Results were expressed as the mean value of the percentage of promastigotes viability ± standard deviation (SD).

[2] = test system: L. infantum Drep-14 promastigotes; test: microbe, parasite or virus in culture; assay type: cell-based; details: Leishmania infantum
Text: as §1, §2, §3, §4

[3] = test system: L. major Empa-12 intracellular amastigotes; test: Anti-amastigote assay in THP-1-derived macrophages, L. major Empa-12; assay type: cell-based, Leishmania major; details: for Selectivity Index (SI): CC50 THP-1 / IC50 amastigotes Empa-12, 72 h; for IC50: Leishmania major, Macrophage, Empa-12, intramacrophage, 72 h
Experimental: (§5) THP-1-derived macrophages (5 × 10^4/well) were seeded in each 8-well Labtek slides (Thermo Scientific). Adherent macrophages were obtained as described above, then infected with stationary phase promastigotes of each strain at a ratio 10:1 (10 parasites/macrophage) in RPMI medium containing penicillin (100 U/mL) and streptomycin (100 μg/mL) with 10% fetal bovine serum (Gibco, Brazil) at 37°C in 5% CO2 for 24 h. […] Non-infected control cells were incubated in a supplemented RPMI medium containing 1% DMSO. After 72h of incubation, cells were fixed and stained using May-Grunwald-Giemsa staining with RAL 555 Kit (RAL DIAGNOSTICS, France), following the manufacturer’s instructions. The percentage of infected cells and the total number of internalized parasites per 100 macrophages were determined under immersion oil (magnification of 1000X) using light microscopy. The percentage of amastigotes viability was expressed as the percentage of total number of internalized parasites within treated cells relative to the total number of internalized parasites within control cells treated with 1% DMSO, and calculated as follows:
(§6) Relative amastigote viability (%) = [(number of amastigotes/100 treated cells)/(number of amastigotes/100 treated cells with1% DMSO)] * 100
(§7) The relative percentage of amastigote viability was evaluated to calculate half inhibitory concentrations (IC50). The mean IC50 values were determined by plotting the curves of the logarithm of compound concentrations versus the relative amastigote viability of three independent experiments performed in two technical replicates for each compound fitted into a nonlinear regression model, using GraphPad Prism version 8.0.1. Selectivity Index (SI) values were calculated as the ratio between cytotoxicity and activity against amastigotes and determined for each compound as follows: SI= CC50/IC50.

[4] = test system: L. infantum LV50 promastigotes; test: MTT-based promastigote viability assay, L. infantum LV50; assay type: cell-based; details: Leishmania infantum
Text: as §1, §2, §3, §4

[5] = test system: L. major and L. infantum amastigotes; test: Anti-amastigote assay, stated across the three strains; assay type: cell-based, Leishmania infantum, Leishmania major
Experimental: as §5, §6, §7

[6] = test system: L. infantum Drep-14 intracellular amastigotes; test: Anti-amastigote assay in THP-1-derived macrophages, L. infantum Drep-14; assay type: cell-based, Leishmania infantum; details: for Selectivity Index (SI): CC50 THP-1 / IC50 amastigotes Drep-14, 72 h; for IC50: Leishmania infantum, Macrophage, Drep-14, intramacrophage, 72 h
Experimental: as §5, §6, §7

[7] = Cytotoxicity assay towards THP-1-derived macrophages (MTT); assay type: cell-based, human; details: human, THP-1-derived macrophages (PMA-differentiated); for CC50 at 72 h: 72 h of treatment, uninfected cells, MTT; for viability at 72 h, 200 µg/mL: at 200 µg/mL
Experimental: (§8) Louis, MO, USA). The PMA-treated THP-1 cells were maintained in this condition for 24 h, followed by a 24 h of rest period after the removal of PMA. […] The cytotoxicity towards THP-1-derived macrophages was assessed after 24, 48 and 72 hours of incubation by MTT assay as described above. […] The percentage of viable cells was calculated from the Optical Density at 570 nm as follows: […]

[8] = test system: THP-1-derived macrophages; test: as above; assay type: cell-based, human; details: for Cytotoxicity on THP-1-derived macrophages: 24, 48, 72 h
Experimental: as §8

[9] = test system: L. major Empa-12 promastigotes; test: MTT-based promastigote viability assay, L. major Empa-12; assay type: cell-based; details: Leishmania major
Text: as §1, §2, §3, §4

[10] = test system: L. infantum LV50 intracellular amastigotes; test: Anti-amastigote assay in THP-1-derived macrophages, L. infantum LV50; assay type: cell-based, Leishmania infantum; details: for Selectivity Index (SI): CC50 THP-1 / IC50 amastigotes LV50, 72 h; for IC50: Leishmania infantum, Macrophage, LV50, intramacrophage, 72 h
Experimental: as §5, §6, §7

[11] = 72 h, read-out: Promastigotes IC50
[12] = 72 h, read-out: Promastigotes IC50 (in brackets)
[13] = read-out: Amastigotes IC50 (in brackets) (converted)
[14] = LV50, 72 h, MTT, read-out: Promastigotes IC50
[15] = LV50, 72 h, MTT, read-out: Promastigotes IC50 (in brackets) (converted)
[16] = read-out: THP-1-derived macrophages CC50
[17] = read-out: THP-1-derived macrophages CC50 (in brackets) (converted)
[18] = Empa-12, 72 h, MTT, read-out: Promastigotes IC50
[19] = Empa-12, 72 h, MTT, read-out: Promastigotes IC50 (in brackets) (converted)

Compound	Effect on promastigote viability [1]	IC50 [2, 11] [µg/mL]	IC50 [2, 12] [µM]	IC50 [1] [µg/mL]	Selectivity Index (SI) [3]	IC50 ([3]; read-out: Amastigotes IC50) [µg/mL]	IC50 [3, 13] [µM]	IC50 [4, 14] [µg/mL]	IC50 [4, 15] [µM]	Selectivity Index (SI) [6]	IC50 ([6]; read-out: Amastigotes IC50) [µg/mL]	IC50 [6, 13] [µM]	CC50 at 72 h [7, 16] [µg/mL]	CC50 at 72 h [7, 17] [mM]	Cytotoxicity on THP-1-derived macrophages [8]	IC50 [9, 18] [µg/mL]	IC50 [9, 19] [µM]	Selectivity Index (SI) [10]	IC50 ([10]; read-out: Amastigotes IC50) [µg/mL]	IC50 [10, 13] [µM]	further results
CCCSc1ccc2nc(NC(=O)OC)[nH]c2c1 [Albendazole]	no effectiveness																				
C[C@@H]1[C@H](O)[C@@H](C)/C=C/C=C/C=C/C=C/C=C/C=C/C=C/[C@H](O[C@@H]2O[C@H](C)[C@@H](O)[C@H](N)[C@@H]2O)C[C@@H]2O[C@](O)(C[C@@H](O)C[C@@H](O)[C@H](O)CC[C@@H](O)C[C@@H](O)CC(=O)O[C@H]1C)C[C@H](O)[C@H]2C(=O)O [Amphotericin B]		0.2 ± 0.004	0.22	0.15 to 0.2 (≈ 0.162 to 0.216 µM)	> 100.00	0.05 ± 0.005	0.054	0.15 ± 0.01	0.16	> 125.00	0.04 ± 0.006	0.043	> 5	> 0.00541	no cytotoxic effect	0.2 ± 0.01	0.22	> 166.66	0.03 ± 0.004	0.032	IC50 ([5]; LV50, Drep-14, Empa-12; intramacrophage, 72 h; read-out: Amastigotes IC50, span over the three strains): 0.03 to 0.05 µg/mL (≈ 0.0325 to 0.0541 µM)
CCCNC(C)C(=O)Nc1ccccc1C (stereo not shown) [Prilocaine]	dose-dependent decrease of parasite viability	34.8 ± 3.22	158	33.1 to 45.8 (≈ 150 to 208 µM)	> 13.02	30.7 ± 2.2	139	45.8 ± 2.46	208	> 13.14	30.4 ± 2.3	138	> 200	> 1.82	no significant cytotoxicity	33.1 ± 2.3	150	> 15.25	26.2 ± 3.14	119	IC50 ([5]; 72 h, LV50, Drep-14, Empa-12; intramacrophage, 72 h; read-out: Amastigotes IC50, span over the three strains): 13.8 to 66.8 µg/mL (≈ 62.8 to 303 µM); viability at 72 h, 200 µg/mL ([7]; read-out: Macrophage viability): 90 to 100%; viability ([7]; at the IC50 value on the promastigotes, read-out: Macrophage viability): 90 to 100%; Concentration at which cytotoxic effects start ([8]; 72 h of incubation): 400 µg/mL
C=C(CC)C(=O)c1ccc(OCC(=O)O)c(Cl)c1Cl [Ethacrynic acid]	no effectiveness																				
NS(=O)(=O)c1cc2c(cc1Cl)N=C(CSCc1ccccc1)NS2(=O)=O [Benzthiazide]	no effectiveness																				
Nc1nc(O)c2ncn(COC(CO)CO)c2n1 [Ganciclovir]	no effectiveness																				
CNC[C@H](O)c1cccc(O)c1 [Phenylephrine]	dose-dependent decrease of parasite viability	> 200	> 1200	> 200	> 2.99	66.8 ± 7.28	400 ± 260	> 200	> 1200	> 4.96	40.2 ± 3.15	241 ± 113	> 200	> 1.2	no significant cytotoxicity	> 200	> 1200	> 5.68	35.2 ± 4.86	211 ± 174	IC50 ([2]; read-out: Promastigotes IC50 estimated through extrapolation): 275 ± 36.6 µg/mL; IC50 ([4]; LV50, extrapolated beyond tested range (200 µg/mL), GraphPad, read-out: Promastigotes IC50 estimated through extrapolation): 219 ± 25.5 µg/mL; viability at 72 h, 200 µg/mL ([7]; read-out: Macrophage viability): 90 to 100%; IC50 ([9]; Empa-12, extrapolated beyond tested range (200 µg/mL), GraphPad, read-out: Promastigotes IC50 estimated through extrapolation): 266 ± 79.5 µg/mL
CCc1cc(C(N)=S)ccn1 [Ethionamide]	no effectiveness																				
